Results reported in patent EP4559927A1, “CARRIER PEPTIDE FRAGMENT AND USE THEREOF” (Toagosei Co., Ltd., priority 2022, dated 2025).
Primed or numbered codes have the meaning given here. FAM = 5(6)-carboxyfluorescein; FAM″ = C-terminal FAM dye

What follows are substances tested on NSC-34 cells (assay: Evaluation on cell membrane permeability by flow cytometry). Settings: median fluorescence intensity of FAM (detector FL2), 25 µM construct, 0.42% DMSO, 20 hours at 37°C, 5% CO2.
Assay type: cell-based, mouse
Description: As the eukaryotic cells, NSC-34 cells (mouse motor neuron-like hybrid cell line) were used and the cell membrane permeability of the samples 1 to 7 was analyzed. In Examples 1 to 7, the prepared sample solutions 1 to 7 were used, respectively, and in Example 8, a FAM solution was used.
The NSC-34 cells were cultured in 10% fetal bovine serum (FBS)-containing Dulbecco's modified Eagle's medium (DMEM (Cat No. 044-29765, manufactured by FUJIFILM Wako Pure Chemical Corporation)), which is a normal culture medium.
The NSC-34 cells that adhered to a culture plate were cleaned with PBS and then, a 0.25%-trypsin/EDTA solution was added thereto, and incubation was performed for three minutes at 37°C. After the incubation, the aforementioned 10% FBS-containing DMEM was added to deactivate trypsin and then, five-minute centrifugal separation was performed at 150 × g to precipitate the cells. After the supernatant generated by the centrifugal separation was removed, the 10% FBS-containing DMEM was added to the precipitate (cell pellet) to prepare a cell suspension of about 2 × 10^5 cells/mL. The cell suspension was added by 1 mL to a well of a commercially available six-hole (well) plate (manufactured by AGC TECHNO GLASS Co., Ltd.) so as to seed the cell (about 2 × 10^5 cells/well). In addition, the 6 mM sample solution 1 was diluted with the 10% FBS-containing DMEM to prepare the sample solution 1 in which the concentration of the sample 1 was 50 µM. Then, 1 mL of the 50 µM sample solution 1 was added to the well (that is, so that the concentration of the sample 1 became 25 µM and the DMSO concentration became 0.42% in the culture solution in the well). After that, the cell was incubated for 20 hours at 37°C under a 5% CO2 condition.
After the 20-hour incubation, the culture supernatant was removed from the well and the cells in the well were cleaned twice with 1 mL of PBS. Next, 200 µL of the 0.25% trypsin/EDTA solution was added to the well and the incubation was performed for three minutes at 37°C. After the incubation, 400 µL of the 10% FBS-containing DMEM was added to the well to deactivate the trypsin. Subsequently, the cell suspension in the well was transferred to a tube and the cells were collected. After that, 600 µL of PBS was added further to the well to clean the well. Then, PBS in the well was transferred to the tube, so that the cells remaining in the well were collected in the tube. This tube was subjected to five-minute centrifugal separation at 4°C under a condition of 210 × g. After the centrifugal separation, the supernatant was removed and the precipitate (cell pellet) was suspended (cleaned) with 1 mL of PBS, which was followed by the centrifugal separation under the same condition as that described above. After this operation was repeated twice, the supernatant was removed and thus, the cells (cell pellet) cultured in a culture medium containing the sample 1 were obtained.
Regarding the obtained cells (cell pellet), the cell membrane permeability of the sample 1 was analyzed using a flow cytometer. As the flow cytometer, On-Chip Flowcytometer (manufactured by On-Chip Biotechnologies Co., LTD.) was used.
For such an analysis, the obtained cell pellet was suspended with 100 µL of on-chip T buffer to prepare a cell suspension for analysis.
Using the aforementioned flow cytometer, gating based on forward scatter (FSC) and side scatter (SSC) was performed to set a gate about a cell group to be analyzed, and the fluorescence intensity was measured about the cell group in this gate. Note that the analysis was performed so that the cell group contained at least 10000 cells or more. The fluorescence intensity was measured using a fluorescence detector FL2 of the flow cytometer (optimum detection wavelength around 543 nm) capable of detecting the fluorescence wavelength of FAM. […]

Substance | MFI
Ac-KKRTLRKEDEDRKKR-FAM (Ac-KKRTLRKEDEDRKKR-{FAM″}) [Example 3] | 13.8
Ac-KKRTLRKDDEERKKR-FAM (Ac-KKRTLRKDDEERKKR-{FAM}) [Example 5] | 14.8
Ac-KKRTLRKDEDERKKR-FAM [Example 6] | 15.2
Ac-KKRTLRKEDEDEDRKKR-FAM (Ac-KKRTLRKEDEDEDRKKR-{FAM}) [Example 7] | 14.3
Ac-KKRTLRKEEDDRKKR-FAM (Ac-KKRTLRKEEDDRKKR-{FAM}) [Example 4] | 14.3
5(6)-carboxyfluorescein [Example 8] | 11
Ac-KKRTLRKDERKKR-FAM (Ac-KKRTLRKDERKKR-{FAM}) [Example 1] | 16.3
Ac-KKRTLRKEDRKKR-FAM (Ac-KKRTLRKEDRKKR-{FAM}) [Example 2] | 15.7
